# Biological target: T1, human PTH1 receptor (Homo sapiens, UniProt Q03431)
# T1 sequence (Q03431 27-593): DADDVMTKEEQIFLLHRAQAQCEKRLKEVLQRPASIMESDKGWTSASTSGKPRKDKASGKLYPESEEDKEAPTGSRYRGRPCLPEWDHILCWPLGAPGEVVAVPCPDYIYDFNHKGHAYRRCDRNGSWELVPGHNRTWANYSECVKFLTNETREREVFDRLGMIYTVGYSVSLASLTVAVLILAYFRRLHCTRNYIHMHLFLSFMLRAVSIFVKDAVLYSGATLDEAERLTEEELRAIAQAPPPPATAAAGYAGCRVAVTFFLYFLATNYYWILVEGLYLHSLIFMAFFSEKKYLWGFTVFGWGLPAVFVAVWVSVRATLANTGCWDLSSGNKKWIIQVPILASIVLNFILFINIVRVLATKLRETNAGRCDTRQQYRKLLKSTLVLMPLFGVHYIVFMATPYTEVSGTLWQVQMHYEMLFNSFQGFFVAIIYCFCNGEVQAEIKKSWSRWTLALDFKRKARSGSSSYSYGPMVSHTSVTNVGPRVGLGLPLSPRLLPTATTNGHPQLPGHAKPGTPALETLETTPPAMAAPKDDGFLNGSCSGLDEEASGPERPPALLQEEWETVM
# Test: In vitro cAMP signal activity in HKRK-B7 cells (LLC-PK1 cells overexpressing the human PTH1 receptor)
# Type: cell-based
# Settings: 0.1 µM
row,SMILES,cAMP production activity (%)
1,Cc1cc2ccc1CCS(=O)(=O)N1CCC3(CC1)N=C(NC3=O)c1cc(cc(C(F)(F)F)c1)OCC(F)(F)C(F)(F)C(F)(F)COCCN(C)C2=O [Compound 1441],5.0

# Same assay, conditions: HKRK-B7 cells; compound at 1×10^−3 M; cAMP produced as percentage of that produced by hPTH(1-34) at 100 nM
row,SMILES,cAMP production activity (%)
1,"C=CCCCN(C)C(=O)c1ccc(CCS(=O)(=O)N2CCC3(CC2)N=C(c2cc(OCCC=C)cc(C(F)(F)F)c2)NC3=O)c(C)c1 [Compound 1405, 4-{2-[2-(3-But-3-enyloxy-5-trifluoromethyl-phenyl)-4-oxo-1,3,8-triaza-spiro[4.5]dec-1-ene-8-sulfonyl]-ethyl}-3,N-dimethyl-N-pent-4-enyl-benzamide]",51
2,Cc1cc2ccc1CCS(=O)(=O)N1CCC3(CC1)N=C(NC3=O)c1cc(cc(C(F)(F)F)c1)OCCC=CCCCN(C)C2=O [Compound 1406],7.3
3,Cc1cc2ccc1CCS(=O)(=O)N1CCC3(CC1)N=C(NC3=O)c1cc(cc(C(F)(F)F)c1)OCC/C=C\CN(C)C2=O [Compound 1408],5.1
4,"C=CCCOc1cc(C2=NC3(CCN(S(=O)(=O)CCc4ccc(C(=O)N(C)CCOCC=C)cc4C)CC3)C(=O)N2)cc(C(F)(F)F)c1 [Compound 1419, N-(2-Allyloxy-ethyl)-4-{2-[2-(3-but-3-enyloxy-5-trifluoromethyl-phenyl)-4-oxo-1,3,8-triaza-spiro[4.5]dec-1-ene-8-sulfonyl]-ethyl}-3,N-dimethyl-benzamide]",70
5,Cc1cc2ccc1CCS(=O)(=O)N1CCC3(CC1)N=C(NC3=O)c1cc(cc(C(F)(F)F)c1)OCC/C=C/CNC(=O)CN(C)C2=O [Compound 1422],15
6,Cc1cc2ccc1CCS(=O)(=O)N1CCC3(CC1)N=C(NC3=O)c1cc(cc(C(F)(F)F)c1)OCCC/C=C\NC(=O)CN(C)C2=O [Compound 1423],17
7,Cc1cc2ccc1CCS(=O)(=O)N1CCC3(CC1)N=C(NC3=O)c1cc(cc(C(F)(F)F)c1)OCC/C=C/CO[C@H]1CN(C[C@@H]1O)C2=O [Compound 1424],29
8,Cc1cc2ccc1CCS(=O)(=O)N1CCC3(CC1)N=C(NC3=O)c1cc(cc(C(F)(F)F)c1)OCCCCCO[C@H]1CN(C[C@@H]1O)C2=O [Compound 1425],32
9,Cc1cc2ccc1CCS(=O)(=O)N1CCC3(CC1)N=C(NC3=O)c1cc(cc(C(F)(F)F)c1)OCC/C=C/COCCNC2=O [Compound 1426],5.4
10,Cc1cc2ccc1CCS(=O)(=O)N1CCC3(CC1)N=C(NC3=O)c1cc(cc(C(F)(F)F)c1)OCC/C=C/COCCN(CCO)C2=O [Compound 1428],67
11,Cc1cc2ccc1CCS(=O)(=O)N1CCC3(CC1)N=C(NC3=O)c1cc(cc(C(F)(F)F)c1)OCCC(O)C(O)CCCN(C)C2=O (stereo not shown) [Compound 1430],13
12,Cc1cc2ccc1CCS(=O)(=O)N1CCC3(CC1)N=C(NC3=O)c1ccc(C(F)(F)F)c(c1)OCCCC=COCCN(C)C2=O [Compound 1431],15
13,CCCCc1ccc2cc1OCCCCCOCCN(C)C(=O)c1ccc(c(C)c1)CCS(=O)(=O)N1CCC3(CC1)N=C2NC3=O [Compound 1434],54
14,Cc1cc2ccc1CCS(=O)(=O)N1CCC3(CC1)N=C(NC3=O)c1cc(cc(C(F)(F)F)c1)OCCOCCNC(=O)CN(C)C2=O [Compound 1440],10
15,Cc1cc2ccc1CCS(=O)(=O)N1CCC3(CC1)N=C(NC3=O)c1cc(cc(C(F)(F)F)c1)OCCc1cn(nn1)CCCN(C)C2=O [Compound 1442],9.3
16,"C=CCCCCCCCC(=O)N(C)c1cc(C)c(CCS(=O)(=O)N2CCC3(CC2)N=C(CCCCC=C)NC3=O)c(C)c1 [Compound 1443, dec-9-enoic acid {4-[2-(2-hex-5-enyl-4-oxo-1,3,8-triaza-spiro[4.5]dec-1-ene-8-sulfonyl)-ethyl]-3,5-dimethyl-phenyl}-methyl-amide]",61
17,Cc1cc2cc(C)c1CCS(=O)(=O)N1CCC3(CC1)N=C(CCCC/C=C/CCCCCCCC(=O)N2C)NC3=O [Compound 1444],12
18,Cc1cc2cc(C)c1CCS(=O)(=O)N1CCC3(CC1)N=C(CCCCCCCCCCCCCC(=O)N2C)NC3=O [Compound 1445],62
19,"C=CCCCCC(=O)N(C)c1cc(C)c(CCS(=O)(=O)N2CCC3(CC2)N=C(CCCCC=C)NC3=O)c(C)c1 [Compound 1446, Hept-6-enoic acid {4-[2-(2-hex-5-enyl-4-oxo-1,3,8-triaza-spiro[4.5]dec-1-ene-8-sulfonyl)-ethyl]-3,5-dimethyl-phenyl}-methyl-amide]",88
20,Cc1cc2cc(C)c1CCS(=O)(=O)N1CCC3(CC1)N=C(CCCC/C=C/CCCCC(=O)N2C)NC3=O [Compound 1447],15
21,Cc1cc2cc(C)c1CCS(=O)(=O)N1CCC3(CC1)N=C(CCCCCCCCCCC(=O)N2C)NC3=O [Compound 1448],9.4

# Now from value to molecule:
row,cAMP production activity (%),SMILES
1,6.6,Cc1cc2ccc1CCS(=O)(=O)N1CCC3(CC1)N=C(NC3=O)c1cc(cc(C(F)(F)F)c1)OCCCCCCCN(C)C2=O [Compound 1407]
2,13,Cc1cc2ccc1CCS(=O)(=O)N1CCC3(CC1)N=C(NC3=O)c1cc(cc(C(F)(F)F)c1)OCCCCCN(C)C2=O [Compound 1409]
3,7.2,Cc1cc2ccc1CCS(=O)(=O)N1CCC3(CC1)N=C(NC3=O)c1cc(cc(C(F)(F)F)c1)OCCCCCCCCN(C)C2=O [Compound 1412]
4,57,Cc1cc2ccc1CCS(=O)(=O)N1CCC3(CC1)N=C(NC3=O)c1cc(cc(C(F)(F)F)c1)OCC/C=C/CCCCCN(C)C2=O [Compound 1413]
5,47,Cc1cc2ccc1CCS(=O)(=O)N1CCC3(CC1)N=C(NC3=O)c1cc(cc(C(F)(F)F)c1)OCC/C=C\CCCCCN(C)C2=O [Compound 1414]
6,49,Cc1cc2ccc1CCS(=O)(=O)N1CCC3(CC1)N=C(NC3=O)c1cc(cc(C(F)(F)F)c1)OCCCCCCCCCN(C)C2=O [Compound 1415]
7,48,Cc1cc2ccc1CCS(=O)(=O)N1CCC3(CC1)N=C(NC3=O)c1cc(cc(C(F)(F)F)c1)OCC/C=C/CCCCCCN(C)C2=O [Compound 1416]
8,49,Cc1cc2ccc1CCS(=O)(=O)N1CCC3(CC1)N=C(NC3=O)c1cc(cc(C(F)(F)F)c1)OCC/C=C\CCCCCCN(C)C2=O [Compound 1417]
9,36,Cc1cc2ccc1CCS(=O)(=O)N1CCC3(CC1)N=C(NC3=O)c1cc(cc(C(F)(F)F)c1)OCCCCCCCCCCN(C)C2=O [Compound 1418]
10,20,Cc1cc2ccc1CCS(=O)(=O)N1CCC3(CC1)N=C(NC3=O)c1cc(cc(C(F)(F)F)c1)OCC/C=C/COCCN(C)C2=O [Compound 1420]
11,49,Cc1cc2ccc1CCS(=O)(=O)N1CCC3(CC1)N=C(NC3=O)c1cc(cc(C(F)(F)F)c1)OCCCCCOCCN(C)C2=O [Compound 1421]
12,72,Cc1cc2ccc1CCS(=O)(=O)N1CCC3(CC1)N=C(NC3=O)c1cc(cc(C(F)(F)F)c1)OCCCCCOCCNC2=O [Compound 1427]
13,8.9,Cc1cc2ccc1CCS(=O)(=O)N1CCC3(CC1)N=C(NC3=O)c1cc(cc(C(F)(F)F)c1)OCCCCCOCCN(CCO)C2=O [Compound 1429]
14,18,Cc1cc2ccc1CCS(=O)(=O)N1CCC3(CC1)N=C(NC3=O)c1ccc(C(F)(F)F)c(c1)OCCCCCOCCN(C)C2=O [Compound 1432]
15,54,Cc1cc2ccc1CCS(=O)(=O)N1CCC3(CC1)N=C(NC3=O)c1cc(cc(C(F)(F)F)c1)OCCC/C=C/COCCN(C)C2=O [Compound 1436]
16,57,Cc1cc2ccc1CCS(=O)(=O)N1CCC3(CC1)N=C(NC3=O)c1cc(cc(C(F)(F)F)c1)OCCCCCCOCCN(C)C2=O [Compound 1437]
17,40,Cc1cc2ccc1CCS(=O)(=O)N1CCC3(CC1)N=C(NC3=O)c1cc(cc(C(F)(F)F)c1)OCCOCCOCCN(C)C2=O [Compound 1438]
18,18,Cc1cc2ccc1CCS(=O)(=O)N1CCC3(CC1)N=C(NC3=O)c1cc(cc(C(F)(F)F)c1)OCC[C@H](O)[C@H](O)COCCN(C)C2=O [Compound 1439]
19,18,Cc1cc2ccc1CCS(=O)(=O)N1CCC3(CC1)N=C(NC3=O)c1cc(cc(C(F)(F)F)c1)OCCCCCNC(=O)CN(C)C2=O [Compound 1449]

# Same assay, conditions: HKRK-B7 cells; compound at 1×10^−3 M; cAMP produced as percentage of that produced by hPTH(1-34) at 100 nM; 0.1 µM
row,cAMP production activity (%),SMILES
1,51,Cc1cc2ccc1CCS(=O)(=O)N1CCC3(CC1)N=C(NC3=O)c1cc(cc(C(F)(F)F)c1)OCCC=CCCCCN(C)C2=O [Compound 1410]
2,38,Cc1cc2ccc1CCS(=O)(=O)N1CCC3(CC1)N=C(NC3=O)c1cc(cc(C(F)(F)F)c1)OCCC=CCCCCN(C)C2=O [Compound 1411]
